The nature of one data set: physchem. It counts as physicochemical. Conditions: for Soluble amount: 24 h, pH 7.4; for solubility at 24 h: pH 7.4, Soluble amount. As for the experimental part: Prior to the solubility measurement of a peptide batch, its purity was determined through UHPLC/MS. […] Therefore, solutions from solid samples were prepared in a buffer system with a concentration of 10 mg/ml compound based on the previously determined % purity: Solubility buffer system A) 100 mM phosphate buffer pH 7.4 […] Solubility buffer system C) 100 mM phosphate buffer pH 7.4, 2.7 mg/ml m-cresol UHPLC-UV was performed after 1 h of gentle agitation and storage at 5° C. over night (24 h) from the supernatant, which was obtained after 15 min of centrifugation at 2500 RCF (relative centrifugal acceleration). […] The different UV extinction coefficients of sample and reference peptide were calculated based on the different amino acid sequences and considered in the concentration calculation. The analytical method used was Analytical UHPLC Method A. Peptide samples were prepared in solubility buffer system A or C and solubility was assessed as described in Methods.

Data set [1] deals with human GLP-1 receptor (hGLP-1R) (Homo sapiens, UniProt P43220). Briefly: cAMP HTRF assay, HEK-293 cell line over-expressing human GLP-1 receptor. It counts as cell-based. Conditions: HEK-293, cAMP, 0% HSA. How it is done: Each vial contained 1.8 ml cells. The vials were slowly frozen to −80° C. in isopropanol, and then transferred in liquid nitrogen for storage.
Chain of human GLP-1 receptor (hGLP-1R) (P43220 24-463): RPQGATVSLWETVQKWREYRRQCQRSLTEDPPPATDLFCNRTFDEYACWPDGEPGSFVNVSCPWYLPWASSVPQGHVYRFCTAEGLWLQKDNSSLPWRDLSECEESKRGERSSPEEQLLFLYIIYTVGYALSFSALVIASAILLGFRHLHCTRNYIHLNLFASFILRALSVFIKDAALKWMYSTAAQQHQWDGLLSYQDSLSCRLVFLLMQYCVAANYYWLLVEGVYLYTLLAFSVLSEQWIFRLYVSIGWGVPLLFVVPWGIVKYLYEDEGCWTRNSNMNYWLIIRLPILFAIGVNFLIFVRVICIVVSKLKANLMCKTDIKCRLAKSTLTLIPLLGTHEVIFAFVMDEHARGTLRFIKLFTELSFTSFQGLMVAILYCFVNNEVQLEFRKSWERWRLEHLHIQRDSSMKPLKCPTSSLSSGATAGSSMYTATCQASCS
Prior to their use, frozen cells were thawed quickly at 37° C. and washed (5 min at 900 rpm) with 20 ml cell buffer (1× HBSS; 20 mM HEPES, plus 0.1% HSA if indicated in Example conditions).
For measurement of cAMP generation, 5 μl cells (final 5000 cells/well) and 5 μl of test compound were added to a 384-well plate, followed by incubation for 30 min at room temperature.
The cAMP generated was determined using a kit from Cisbio Corp. based on HTRF (Homogenous Time Resolved Fluorescence). The cAMP assay was performed according to manufacturer's instructions (Cisbio).

The target of another data set is human GLP-1 receptor (human, UniProt P43220 24-463). The experiment in a line: cell-based or functional assay.
Another data set deals with T1, human GIP receptor (human, UniProt P48546 22-466).
T1 sequence (looked up): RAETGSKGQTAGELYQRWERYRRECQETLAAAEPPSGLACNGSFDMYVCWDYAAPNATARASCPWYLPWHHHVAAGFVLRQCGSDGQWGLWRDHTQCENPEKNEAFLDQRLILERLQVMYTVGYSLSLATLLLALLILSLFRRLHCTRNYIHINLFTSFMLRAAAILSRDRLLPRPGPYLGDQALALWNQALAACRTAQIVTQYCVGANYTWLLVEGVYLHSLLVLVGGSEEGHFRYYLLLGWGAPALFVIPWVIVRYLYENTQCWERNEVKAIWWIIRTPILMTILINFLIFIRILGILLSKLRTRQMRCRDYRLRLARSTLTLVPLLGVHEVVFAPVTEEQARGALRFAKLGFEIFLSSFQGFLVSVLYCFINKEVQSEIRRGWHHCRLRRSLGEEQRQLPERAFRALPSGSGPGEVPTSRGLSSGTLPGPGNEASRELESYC
Briefly: cell-based or functional assay.

*1 amine or outer side, *2 acyl side, *3 side chain or, on linkers, in order; H or OH if unused. Where a SMILES comes first, the peptide text is derived from it. Where no end group is shown, it is not given here. Side-chain parts run from the residue outwards. [ ]: non-standard residue; d: D form. The star is where a group is joined. C18 diacid = O=C(O)CCCCCCCCCCCCCCCCC(=O)*; γGlu = O=C(O)[C@H](CCC(=O)[*:2])N[*:1]; NMeY = CN[C@@H](Cc1ccc(O)cc1)C(=O)O; AEEA = NCCOCCOCC(=O)O; Aib = CC(C)(N)C(=O)O; Sar = CNCC(=O)O Where only a bound is given, the exact number is not on record here.

The record followed here is patent publication US20230103631A1, “PEPTIDES AS SELECTIVE GIP RECEPTOR AGONISTS” (Sanofi, priority 2020, published 2023).

Broadly, the solubility is how much of the substance goes into solution per volume. A word on the EC50: it is the concentration at which the effect is half-maximal.

For `CC[C@H](C)[C@H](NC(=O)[C@H](Cc1ccccc1)NC(=O)[C@H](CCC(=O)O)NC(=O)[C@H](CCC(=O)O)NC(=O)[C@H](CCC(N)=O)NC(=O)[C@H](Cc1c[nH]cn1)NC(=O)[C@@H](NC(=O)[C@H](CCCNC(=N)N)NC(=O)[C@H](CC(=O)O)NC(=O)[C@H](CCCCNC(=O)COCCOCCNC(=O)COCCOCCNC(=O)COCCOCCNC(=O)CC[C@H](NC(=O)CCCCCCCCCCCCCCCCC(=O)O)C(=O)O)NC(=O)C(C)(C)NC(=O)[C@@H](NC(=O)[C@H](CO)NC(=O)[C@H](CC(C)C)NC(=O)[C@H](CC(=O)O)NC(=O)[C@H](CO)NC(=O)[C@@H](NC(=O)[C@H](Cc1ccccc1)NC(=O)[C@@H](NC(=O)CNC(=O)[C@H](CCC(=O)O)NC(=O)C(C)(C)NC(=O)[C@@H](N)Cc1ccc(O)cc1)[C@@H](C)O)[C@@H](C)CC)[C@@H](C)CC)[C@@H](C)CC)C(=O)N[C@@H](CCC(=O)O)C(=O)N[C@@H](Cc1c[nH]c2ccccc12)C(=O)N[C@@H](CC(C)C)C(=O)N[C@@H](CC(C)C)C(=O)N[C@@H](C)C(=O)N[C@@H](CCC(N)=O)C(=O)NCC(=O)N1CCC[C@H]1C(=O)N[C@@H](CO)C(=O)N[C@@H](CO)C(=O)NCC(=O)N[C@@H](C)C(=O)N1CCC[C@H]1C(=O)N1CCC[C@H]1C(=O)N1CCC[C@H]1C(=O)N[C@@H](CO)C(N)=O` [SEQ ID NO: 12, H2N-Y-Aib-E-G-T-F-I-S-D-I-S-I-Aib-K[{AEEA}3-gGlu-C18OH]-DRIHQEEFIEWILAQGPSSGAPPPS-NH2] (H-Y[Aib]EGTFISDLSI[Aib]K([AEEA-AEEA-AEEA-γGlu-C18 diacid])DRIHQEEFIEWLLAQGPSSGAPPPS-NH2), in the data set “physchem”, the Soluble amount was over 9.1 mg/mL and the solubility at 24 h was over 8800 µg/mL. The molecule also came in with an EC50 in data set [1] of over 10 nM.

`CC[C@H](C)[C@H](NC(=O)[C@H](Cc1ccccc1)NC(=O)[C@H](CCC(=O)O)NC(=O)[C@H](CCC(=O)O)NC(=O)[C@H](CCC(N)=O)NC(=O)[C@H](Cc1c[nH]cn1)NC(=O)[C@@H](NC(=O)[C@H](CCCNC(=N)N)NC(=O)[C@H](CC(=O)O)NC(=O)[C@H](CCCCNC(=O)COCCOCCNC(=O)COCCOCCNC(=O)CC[C@H](NC(=O)CCCCCCCCCCCCCCCCC(=O)O)C(=O)O)NC(=O)C(C)(C)NC(=O)[C@@H](NC(=O)[C@H](CO)NC(=O)[C@H](CC(C)C)NC(=O)[C@H](CC(=O)O)NC(=O)[C@H](CO)NC(=O)[C@@H](NC(=O)[C@H](Cc1ccccc1)NC(=O)[C@@H](NC(=O)CNC(=O)[C@H](CCC(=O)O)NC(=O)C(C)(C)NC(=O)[C@H](Cc1ccc(O)cc1)NC)[C@@H](C)O)[C@@H](C)CC)[C@@H](C)CC)[C@@H](C)CC)C(=O)N[C@@H](CCC(=O)O)C(=O)N[C@@H](Cc1c[nH]c2ccccc12)C(=O)N[C@@H](CC(C)C)C(=O)N[C@@H](CC(C)C)C(=O)N[C@@H](C)C(=O)N[C@@H](CCC(N)=O)C(=O)NCC(=O)N1CCC[C@H]1C(=O)N[C@@H](CO)C(=O)N[C@@H](CO)C(=O)NCC(=O)N[C@@H](C)C(=O)N1CCC[C@H]1C(=O)N1CCC[C@H]1C(=O)N1CCC[C@H]1C(=O)N[C@@H](CO)C(N)=O` [SEQ ID NO: 13, MeHN-Y-Aib-E-G-T-F-I-S-D-I-S-I-Aib-K[{AEEA}2-gGlu-C18OH]-DRIHQEEFIEWILAQGPSSGAPPPS-NH2] (H-[NMeY][Aib]EGTFISDLSI[Aib]K([AEEA-AEEA-γGlu-C18 diacid])DRIHQEEFIEWLLAQGPSSGAPPPS-NH2): in “physchem”, the Soluble amount was over 11.0 mg/mL and the solubility at 24 h was over 10200 µg/mL. This molecule yielded a concentration giving a half-maximal response (EC50) in data set [1] of over 10 nM.

In the data set “physchem”, `CC[C@H](C)[C@H](NC(=O)[C@H](Cc1ccccc1)NC(=O)[C@H](CCC(=O)O)NC(=O)[C@H](CCC(=O)O)NC(=O)[C@H](CCC(N)=O)NC(=O)[C@H](Cc1c[nH]cn1)NC(=O)[C@@H](NC(=O)[C@H](CCCNC(=N)N)NC(=O)[C@H](CC(=O)O)NC(=O)[C@H](CCCCNC(=O)COCCOCCNC(=O)COCCOCCNC(=O)CC[C@H](NC(=O)CC[C@H](NC(=O)CCCCCCCCCCCCCCCCC(=O)O)C(=O)O)C(=O)O)NC(=O)C(C)(C)NC(=O)[C@@H](NC(=O)[C@H](CO)NC(=O)[C@H](CC(C)C)NC(=O)[C@H](CC(=O)O)NC(=O)[C@H](CO)NC(=O)[C@@H](NC(=O)[C@H](Cc1ccccc1)NC(=O)[C@@H](NC(=O)CNC(=O)[C@H](CCC(=O)O)NC(=O)C(C)(C)NC(=O)[C@@H](N)Cc1ccc(O)cc1)[C@@H](C)O)[C@@H](C)CC)[C@@H](C)CC)[C@@H](C)CC)C(=O)N[C@@H](CCC(=O)O)C(=O)N[C@@H](Cc1c[nH]c2ccccc12)C(=O)N[C@@H](CC(C)C)C(=O)N[C@@H](CC(C)C)C(=O)N[C@@H](C)C(=O)N[C@@H](CCC(N)=O)C(=O)NCC(=O)N1CCC[C@H]1C(=O)N[C@@H](CO)C(=O)N[C@@H](CO)C(=O)NCC(=O)N[C@@H](C)C(=O)N1CCC[C@H]1C(=O)N1CCC[C@H]1C(=O)N1CCC[C@H]1C(=O)N[C@@H](CO)C(N)=O` [SEQ ID NO: 14, H2N-Y-Aib-E-G-T-F-I-S-D-I-S-I-Aib-K[{AEEA}2-{gGlu}2-C18OH]-DRIHQEEFIEWILAQGPSSGAPPPS-NH2] (H-Y[Aib]EGTFISDLSI[Aib]K([AEEA-AEEA-γGlu-γGlu-C18 diacid])DRIHQEEFIEWLLAQGPSSGAPPPS-NH2) came in with a Soluble amount of over 9.7 mg/mL and a solubility at 24 h of over 9300 µg/mL. Moreover, the concentration giving a half-maximal response (EC50) in data set [1] is over 10 nM.

B1: SEQ ID NO: 17 (peptide)
peptide: Y[Aib]EGTFISDLSI[Aib]K([Sar-Sar-Sar-γGlu-C18 diacid])DRIHQEEFIEWLLAQGPSSGAPPPS-NH2
modifications: N-terminus assumed
SMILES: CC[C@H](C)[C@H](NC(=O)[C@H](Cc1ccccc1)NC(=O)[C@H](CCC(=O)O)NC(=O)[C@H](CCC(=O)O)NC(=O)[C@H](CCC(N)=O)NC(=O)[C@H](Cc1c[nH]cn1)NC(=O)[C@@H](NC(=O)[C@H](CCCNC(=N)N)NC(=O)[C@H](CC(=O)O)NC(=O)[C@H](CCCCNC(=O)CN(C)C(=O)CN(C)C(=O)CN(C)C(=O)CC[C@H](NC(=O)CCCCCCCCCCCCCCCCC(=O)O)C(=O)O)NC(=O)C(C)(C)NC(=O)[C@@H](NC(=O)[C@H](CO)NC(=O)[C@H](CC(C)C)NC(=O)[C@H](CC(=O)O)NC(=O)[C@H](CO)NC(=O)[C@@H](NC(=O)[C@H](Cc1ccccc1)NC(=O)[C@@H](NC(=O)CNC(=O)[C@H](CCC(=O)O)NC(=O)C(C)(C)NC(=O)[C@@H](N)Cc1ccc(O)cc1)[C@@H](C)O)[C@@H](C)CC)[C@@H](C)CC)[C@@H](C)CC)C(=O)N[C@@H](CCC(=O)O)C(=O)N[C@@H](Cc1c[nH]c2ccccc12)C(=O)N[C@@H](CC(C)C)C(=O)N[C@@H](CC(C)C)C(=O)N[C@@H](C)C(=O)N[C@@H](CCC(N)=O)C(=O)NCC(=O)N1CCC[C@H]1C(=O)N[C@@H](CO)C(=O)N[C@@H](CO)C(=O)NCC(=O)N[C@@H](C)C(=O)N1CCC[C@H]1C(=O)N1CCC[C@H]1C(=O)N1CCC[C@H]1C(=O)N[C@@H](CO)C(N)=O
Regarding B1, in the data set with human GLP-1 receptor, the “EC50 hGLP-1R 0% HSA, cAMP in HEK-293 cells” value was over 10 nM. In the data set with human GIP receptor, the “EC50 hGIPR 0% HSA, cAMP in HEK-293 cells” value is 0.00029 nM and the “EC50 hGIPR 0.1% HSA, cAMP in HEK-293 cells” value was 0.00339 nM.
